# From patent US20070049593A1 (priority 2004, published 2007)
# Structures can show the parent of a compound that is named as a salt.
# Target: T1, HCV polymerase (Hepatitis C virus genotype 1b, UniProt P26663)
# T1 construct: a region encoding NS5B (J Virol 1991 March, 65(3), 1105-13, 544 amino acids after deletion of 47 amino acids on the C-terminal); 6xHis (C); made in house; host or cells: Escherichia coli
# Experiment: biochemical
# Design: species or system HCV BK strain
# How it was run: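 His-tagged NS5B (BK strain, 47-aa C-terminal deletion, E. coli-expressed) at 0.5 μg/ml copied 5 μg/ml run-off RNA bearing the HCV 3′ UTR with 2 μM UTP plus [3H]UTP, 50 μM ATP/GTP, in pH 7.5 Tris with 5 mM MgCl2, 25 °C, 90 min. TCA-precipitated RNA was counted and IC50 calculated.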
# T1 sequence (P26663 2420-2963): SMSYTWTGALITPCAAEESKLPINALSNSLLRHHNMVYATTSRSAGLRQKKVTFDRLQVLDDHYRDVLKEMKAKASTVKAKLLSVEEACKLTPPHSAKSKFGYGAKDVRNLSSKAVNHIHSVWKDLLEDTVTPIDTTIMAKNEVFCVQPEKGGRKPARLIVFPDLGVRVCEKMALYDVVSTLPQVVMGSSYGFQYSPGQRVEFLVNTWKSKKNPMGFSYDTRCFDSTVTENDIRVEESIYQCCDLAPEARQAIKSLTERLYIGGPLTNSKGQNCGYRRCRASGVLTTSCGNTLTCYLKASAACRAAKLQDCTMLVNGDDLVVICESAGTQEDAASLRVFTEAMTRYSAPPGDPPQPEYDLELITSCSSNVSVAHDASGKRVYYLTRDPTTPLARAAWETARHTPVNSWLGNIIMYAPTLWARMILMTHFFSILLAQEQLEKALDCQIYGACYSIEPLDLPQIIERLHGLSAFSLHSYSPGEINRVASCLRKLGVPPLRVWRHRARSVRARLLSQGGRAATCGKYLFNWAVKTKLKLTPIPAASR
row,SMILES,IC50 [nM]
1,"COc1ccc2c(c1)OCCn1c-2c(C2CCCCC2)c2ccc(C(=O)NC3(c4nc5cc(C(C)(C)O)c(OC)cc5[nH]4)CCC3)cc21 [Example 2-447, N-{1-[5-(1-hydroxy-1-methylethyl)-6-methoxy-1H-benzimidazol-2-yl]cyclobutyl}-12-cyclohexyl-3-methoxy-6,7-dihydro-5-oxa-7a-azadibenzo[a,e]azulene-9-carboxamide]",< 100
2,"COc1ccc2c(c1)OCCn1c-2c(C2CCCCC2)c2ccc(C(=O)NC3(C(=O)Nc4ccc5nc[nH]c5c4)CCC3)cc21 [Example 2-448, N-[1-(3H-benzimidazol-5-ylcarbamoyl)cyclobutyl]-12-cyclohexyl-3-methoxy-6,7-dihydro-5-oxa-7a-azadibenzo[a,e]azulene-9-carboxamide]",< 100
3,"COc1ccc2c(c1)OCCn1c-2c(C2CCCCC2)c2ccc(C(=O)NC3(c4nc5ccc(C(=O)O)cc5[nH]4)CCN(C)CC3)cc21 [Example 2-449, 2-{4-[(12-cyclohexyl-3-methoxy-6,7-dihydro-5-oxa-7a-azadibenzo[a,e]azulene-9-carbonyl)amino]-1-methylpiperidin-4-yl}-3H-benzimidazole-5-carboxylic acid]",< 100
4,"COc1ccc2c(c1)OCCn1c-2c(C2CCCCC2)c2ccc(C(=O)N[C@@H](Cc3ccc(O)cc3)C3=NCCN3)cc21 [Example 2-450, N—[(S)-1-(4,5-dihydro-1H-imidazol-2-yl)-2-(4-hydroxyphenyl)ethyl]-12-cyclohexyl-3-methoxy-6,7-dihydro-5-oxa-7a-azadibenzo[a,e]azulene-9-carboxamide]",< 100
5,"COc1ccc2c(c1)OCCn1c-2c(C2CCCCC2)c2ccc(C(=O)NC3(C(=O)Nc4ccc(/C=C/C(=O)O)cc4OC)CCC3)cc21 [Example 2-451, (E)-3-[4-({1-[(12-cyclohexyl-3-methoxy-6,7-dihydro-5-oxa-7a-azadibenzo[a,e]azulene-9-carbonyl)amino]cyclobutanecarbonyl}amino)-3-methoxyphenyl]acrylic acid]",< 100
6,"COc1ccc2c(c1)OCCn1c-2c(C2CCCCC2)c2ccc(C(=O)N[C@@H](Cc3ccc(O)cc3)C(=O)OC(C)(C)C)cc21 [Example 2-452, tert-butyl (S)-2-[(12-cyclohexyl-3-methoxy-6,7-dihydro-5-oxa-7a-azadibenzo[a,e]azulene-9-carbonyl)amino]-3-(4-hydroxyphenyl)propionate]",< 100
7,"COc1ccc2c(c1)OCCn1c-2c(C2CCCCC2)c2ccc(C(=O)N[C@@H](Cc3ccc(O)cc3)c3nc(=O)on3C)cc21 [Example 2-453, N—[(S)-2-(4-hydroxyphenyl)-1-(2-methyl-5-oxo-2,5-dihydro-1,2,4-oxadiazol-3-yl)ethyl]-12-cyclohexyl-3-methoxy-6,7-dihydro-5-oxa-7a-azadibenzo[a,e]azulene-9-carboxamide]",< 100
8,"COc1ccc2c(c1)OCCn1c-2c(C2CCCCC2)c2ccc(C(=O)N[C@@H](Cc3ccc(O)cc3)c3nnnn3C)cc21 [Example 2-454, N—[(S)-2-(4-hydroxyphenyl)-1-(1-methyl-1H-tetrazol-5-yl)ethyl]-12-cyclohexyl-3-methoxy-6,7-dihydro-5-oxa-7a-azadibenzo[a,e]azulene-9-carboxamide]",< 100
9,"COc1ccc2c(c1)OCCn1c-2c(C2CCCCC2)c2ccc(C(=O)NC3(c4nc5cc(OCC(=O)O)ccc5[nH]4)CCC3)cc21 [Example 2-455, (2-{1-[(12-cyclohexyl-3-methoxy-6,7-dihydro-5-oxa-7a-azadibenzo[a,e]azulene-9-carbonyl)amino]cyclobutyl}-1H-benzimidazol-5-yloxy)acetic acid]",< 100
10,"CCN1CCN(CCOc2cccc3c2OCCn2c-3c(C3CCCCC3)c3ccc(C(=O)O)cc32)CC1 [Example 2-456, 12-cyclohexyl-4-[2-(4-ethylpiperazin-1-yl)ethoxy]-6,7-dihydro-5-oxa-7a-azadibenzo[a,e]azulene-9-carboxylic acid dihydrochloride]",< 100
11,"CC(C)(C)OC(=O)N1CCC(CCOc2cccc3c2OCCn2c-3c(C3CCCCC3)c3ccc(C(=O)O)cc32)CC1 [Example 2-457, 4-[2-(1-tert-butoxycarbonylpiperidin-4-yl)ethoxy]-12-cyclohexyl-6,7-dihydro-5-oxa-7a-azadibenzo[a,e]azulene-9-carboxylic acid]",< 100
12,"O=C(O)c1ccc2c(C3CCCCC3)c3n(c2c1)CCOc1c(OCCC2CCNCC2)cccc1-3 [Example 2-458, 12-cyclohexyl-4-[2-(piperidin-4-yl)ethoxy]-6,7-dihydro-5-oxa-7a-azadibenzo[a,e]azulene-9-carboxylic acid monohydrochloride]",< 100
13,"CN1CCC(CCOc2cccc3c2OCCn2c-3c(C3CCCCC3)c3ccc(C(=O)O)cc32)CC1 [Example 2-459, 12-cyclohexyl-4-[2-(1-methylpiperidin-4-yl)ethoxy]-6,7-dihydro-5-oxa-7a-azadibenzo[a,e]azulene-9-carboxylic acid monohydrochloride]",< 100
14,"O=C(O)c1ccc2c(C3CCCCC3)c3n(c2c1)CCOc1c(OCCCN2CCCCC2)cccc1-3 [Example 2-460, 12-cyclohexyl-4-[3-(piperidin-1-yl)propoxy]-6,7-dihydro-5-oxa-7a-azadibenzo[a,e]azulene-9-carboxylic acid monohydrochloride]",< 100
15,"O=C(O)c1ccc2c(C3CCCCC3)c3n(c2c1)CCOc1c(OCCN2CCOCC2)cccc1-3 [Example 2-462, 12-cyclohexyl-4-[2-(morpholin-4-yl)ethoxy]-6,7-dihydro-5-oxa-7a-azadibenzo[a,e]azulene-9-carboxylic acid monohydrochloride]",< 100
16,"CN(C)CCOc1cccc2c1OCCn1c-2c(C2CCCCC2)c2ccc(C(=O)O)cc21 [Example 2-463, 12-cyclohexyl-4-(2-dimethylaminoethoxy)-6,7-dihydro-5-oxa-7a-azadibenzo[a,e]azulene-9-carboxylic acid monohydrochloride]",< 100
17,"O=C(O)c1ccc2c(C3CCCCC3)c3n(c2c1)CCOc1c(CCN2CCCCC2)cccc1-3 [Example 2-464, 12-cyclohexyl-4-[2-(piperidin-1-yl)ethyl]-6,7-dihydro-5-oxa-7a-azadibenzo[a,e]azulene-9-carboxylic acid monohydrochloride]",< 100
18,"CC(C)(C)OC(=O)N1CCC(OCCOc2cccc3c2OCCn2c-3c(C3CCCCC3)c3ccc(C(=O)O)cc32)CC1 [Example 2-465, 4-[2-(1-tert-butoxycarbonylpiperidin-4-yloxy)ethoxy]-12-cyclohexyl-6,7-dihydro-5-oxa-7a-azadibenzo[a,e]azulene-9-carboxylic acid]",< 100
19,"O=C(O)c1ccc2c(C3CCCCC3)c3n(c2c1)CCOc1c(OCCOC2CCNCC2)cccc1-3 [Example 2-466, 12-cyclohexyl-4-[2-(piperidin-4-yloxy)ethoxy]-6,7-dihydro-5-oxa-7a-azadibenzo[a,e]azulene-9-carboxylic acid monohydrochloride]",< 100
20,"CN1CCC(OCCOc2cccc3c2OCCn2c-3c(C3CCCCC3)c3ccc(C(=O)O)cc32)CC1 [Example 2-467, 12-cyclohexyl-4-[2-(1-methylpiperidin-4-yloxy)ethoxy]-6,7-dihydro-5-oxa-7a-azadibenzo[a,e]azulene-9-carboxylic acid monohydrochloride]",< 100
